Assay results published in ChEMBL document CHEMBL4602719, “Discovery of Potent, Selective, and Orally Bioavailable Inhibitors of USP7 with In Vivo Antitumor Activity” (J Med Chem, 2020).

Legend:
[1] = target: Ubiquitin carboxyl-terminal hydrolase 6 (Homo sapiens, UniProt P35125); assay: Inhibition of human GST-tagged USP6 CD (529 to 1406 residues) expressed in Sf21 insect cells assessed as cleavage of Ubiquitin-Rhodamine110-glycine to Ubiquitin and Rhodamine110-glycine using Ubiquitin-Rhodamine110-glycine as substrate by fluorescence based analysis
[2] = target: Ubiquitin carboxyl-terminal hydrolase 11 (Homo sapiens, UniProt P51784); assay: Inhibition of USP11 (unknown origin)
[3] = target: Ubiquitin carboxyl-terminal hydrolase 45 (Homo sapiens, UniProt Q70EL2); assay: Inhibition of USP45 (unknown origin)
Cytochrome P450 3A4 = Cytochrome P450 3A4 (Homo sapiens, UniProt P08684); assay: Inhibition of CYP3A4 (unknown origin); format: ADME
[4] = target: T1, Ubiquitin carboxyl-terminal hydrolase 1 (Homo sapiens, UniProt O94782); assay: Inhibition of His6-tagged human USP1 expressed in insect Sf21 cells coexpressing untagged UAF1 assessed as cleavage of Ubiquitin-Rhodamine110-glycine to Ubiquitin and Rhodamine110-glycine using Ubiquitin-Rhodamine110-glycine as substrate by fluorescence based analysis
T1 sequence (O94782 whole entry): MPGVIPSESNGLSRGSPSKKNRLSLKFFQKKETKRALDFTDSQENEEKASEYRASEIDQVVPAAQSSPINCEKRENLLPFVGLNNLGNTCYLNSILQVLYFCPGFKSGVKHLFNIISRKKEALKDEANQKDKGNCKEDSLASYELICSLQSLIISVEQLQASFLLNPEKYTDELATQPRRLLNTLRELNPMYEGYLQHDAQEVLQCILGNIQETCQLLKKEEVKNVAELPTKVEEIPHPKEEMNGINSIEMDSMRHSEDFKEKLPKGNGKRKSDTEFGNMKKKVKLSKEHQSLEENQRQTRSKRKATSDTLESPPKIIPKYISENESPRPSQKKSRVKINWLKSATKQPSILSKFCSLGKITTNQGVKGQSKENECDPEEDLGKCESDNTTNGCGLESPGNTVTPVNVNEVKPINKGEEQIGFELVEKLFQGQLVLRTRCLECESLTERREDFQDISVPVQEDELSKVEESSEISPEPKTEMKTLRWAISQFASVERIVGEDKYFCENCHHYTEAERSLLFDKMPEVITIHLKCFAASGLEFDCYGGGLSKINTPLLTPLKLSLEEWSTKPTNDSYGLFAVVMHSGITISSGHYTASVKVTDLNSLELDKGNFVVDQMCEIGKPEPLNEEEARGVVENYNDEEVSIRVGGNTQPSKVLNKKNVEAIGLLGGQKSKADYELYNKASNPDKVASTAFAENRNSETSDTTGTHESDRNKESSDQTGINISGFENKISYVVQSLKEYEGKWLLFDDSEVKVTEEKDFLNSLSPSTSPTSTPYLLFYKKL

[5] = target: OTU domain-containing protein 1 (Homo sapiens, UniProt Q5VV17); assay: Inhibition of human 6His-tagged OTUD1 CD (270 to 481 residues) expressed in Escherichia coli assessed as cleavage of Ubiquitin-Rhodamine110-glycine to Ubiquitin and Rhodamine110-glycine using Ubiquitin-Rhodamine110-glycine as substrate by fluorescence based analysis
[6] = target: Ubiquitin thioesterase OTUB2 (Homo sapiens, UniProt Q96DC9); assay: Inhibition of human GST-tagged OTUB2 expressed in Escherichia coli assessed as cleavage of Ubiquitin-Rhodamine110-glycine to Ubiquitin and Rhodamine110-glycine using Ubiquitin-Rhodamine110-glycine as substrate by fluorescence based analysis
[7] = target: Ubiquitin carboxyl-terminal hydrolase 21 (Homo sapiens, UniProt Q9UK80); assay: Inhibition of human GST-tagged USP21 CD (196 to 565 residues) expressed in Escherichia coli assessed as cleavage of Ubiquitin-Rhodamine110-glycine to Ubiquitin and Rhodamine110-glycine using Ubiquitin-Rhodamine110-glycine as substrate by fluorescence based analysis
[8] = target: T2, Ubiquitin carboxyl-terminal hydrolase isozyme L3 (Homo sapiens, UniProt P15374); assay: Inhibition of human GST-tagged UCHL3 expressed in Escherichia coli assessed as cleavage of Ubiquitin-Rhodamine110-glycine to Ubiquitin and Rhodamine110-glycine using Ubiquitin-Rhodamine110-glycine as substrate by fluorescence based analysis
T2 sequence (P15374 whole entry): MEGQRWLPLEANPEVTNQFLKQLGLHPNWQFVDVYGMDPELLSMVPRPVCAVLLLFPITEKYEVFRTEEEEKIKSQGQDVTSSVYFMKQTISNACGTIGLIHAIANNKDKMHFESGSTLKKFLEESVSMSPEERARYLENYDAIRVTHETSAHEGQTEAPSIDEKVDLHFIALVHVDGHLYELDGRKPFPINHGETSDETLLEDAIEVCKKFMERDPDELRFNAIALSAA

[9] = target: OTU domain-containing protein 6A (Homo sapiens, UniProt Q7L8S5); assay: Inhibition of human His6-tagged OTUD6A expressed in Escherichia coli assessed as cleavage of Ubiquitin-Rhodamine110-glycine to Ubiquitin and Rhodamine110-glycine using Ubiquitin-Rhodamine110-glycine as substrate by fluorescence based analysis
[10] = Inhibition of human GST-tagged OTUD5 P177S mutant expressed in Escherichia coli assessed as cleavage of Ubiquitin-Rhodamine110-glycine to Ubiquitin and Rhodamine110-glycine using Ubiquitin-Rhodamine110-glycine as substrate by fluorescence based analysis
[11] = target: Ubiquitin carboxyl-terminal hydrolase 2 (Homo sapiens, UniProt O75604); assay: Inhibition of human GST-tagged USP2 isoform 4 expressed in Escherichia coli assessed as cleavage of Ubiquitin-Rhodamine110-glycine to Ubiquitin and Rhodamine110-glycine using Ubiquitin-Rhodamine110-glycine as substrate by fluorescence based analysis
[12] = target: Ubiquitin carboxyl-terminal hydrolase 15 (Homo sapiens, UniProt Q9Y4E8); assay: Inhibition of human USP15 isoform 2 expressed in Escherichia coli assessed as cleavage of Ubiquitin-Rhodamine110-glycine to Ubiquitin and Rhodamine110-glycine using Ubiquitin-Rhodamine110-glycine as substrate by fluorescence based analysis
Josephin-2 = Josephin-2 (Homo sapiens, UniProt Q8TAC2); assay: Inhibition of human 6His-tagged JOSD2 expressed in Escherichia coli assessed as cleavage of Ubiquitin-Rhodamine110-glycine to Ubiquitin and Rhodamine110-glycine using Ubiquitin-Rhodamine110-glycine as substrate by fluorescence based analysis
[13] = target: Deubiquitinating protein VCPIP1 (Homo sapiens, UniProt Q96JH7); assay: Inhibition of human GST-tagged VCPIP CD (25 to 561 residues) expressed in Escherichia coli assessed as cleavage of Ubiquitin-Rhodamine110-glycine to Ubiquitin and Rhodamine110-glycine using Ubiquitin-Rhodamine110-glycine as substrate by fluorescence based analysis
[14] = target: Ubiquitin carboxyl-terminal hydrolase BAP1 (Homo sapiens, UniProt Q92560); assay: Inhibition of human GST-tagged BAP1 expressed in Escherichia coli assessed as cleavage of Ubiquitin-Rhodamine110-glycine to Ubiquitin and Rhodamine110-glycine using Ubiquitin-Rhodamine110-glycine as substrate by fluorescence based analysis
Ataxin-3-like protein = Ataxin-3-like protein (Homo sapiens, UniProt Q9H3M9); assay: Inhibition of human 6His-tagged Ataxin-3L expressed in Escherichia coli assessed as cleavage of Ubiquitin-Rhodamine110-glycine to Ubiquitin and Rhodamine110-glycine using Ubiquitin-Rhodamine110-glycine as substrate by fluorescence based analysis

Sequence of OTU domain-containing protein 1 (Q5VV17 whole entry, the tested form may be a part): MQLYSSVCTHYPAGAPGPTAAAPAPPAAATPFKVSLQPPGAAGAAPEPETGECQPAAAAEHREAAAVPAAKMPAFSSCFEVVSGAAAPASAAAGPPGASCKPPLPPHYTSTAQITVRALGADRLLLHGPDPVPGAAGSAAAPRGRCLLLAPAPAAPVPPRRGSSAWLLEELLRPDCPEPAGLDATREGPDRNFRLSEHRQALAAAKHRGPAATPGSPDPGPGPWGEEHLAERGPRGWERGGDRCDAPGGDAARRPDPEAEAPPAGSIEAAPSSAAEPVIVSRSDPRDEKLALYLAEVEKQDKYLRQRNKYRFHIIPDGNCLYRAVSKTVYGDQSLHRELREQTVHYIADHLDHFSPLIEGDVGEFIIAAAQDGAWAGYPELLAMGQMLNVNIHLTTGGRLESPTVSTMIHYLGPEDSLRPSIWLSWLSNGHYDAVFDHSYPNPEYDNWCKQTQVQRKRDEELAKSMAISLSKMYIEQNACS
Sequence of Ubiquitin carboxyl-terminal hydrolase 6 (P35125 whole entry, the tested form may be a part): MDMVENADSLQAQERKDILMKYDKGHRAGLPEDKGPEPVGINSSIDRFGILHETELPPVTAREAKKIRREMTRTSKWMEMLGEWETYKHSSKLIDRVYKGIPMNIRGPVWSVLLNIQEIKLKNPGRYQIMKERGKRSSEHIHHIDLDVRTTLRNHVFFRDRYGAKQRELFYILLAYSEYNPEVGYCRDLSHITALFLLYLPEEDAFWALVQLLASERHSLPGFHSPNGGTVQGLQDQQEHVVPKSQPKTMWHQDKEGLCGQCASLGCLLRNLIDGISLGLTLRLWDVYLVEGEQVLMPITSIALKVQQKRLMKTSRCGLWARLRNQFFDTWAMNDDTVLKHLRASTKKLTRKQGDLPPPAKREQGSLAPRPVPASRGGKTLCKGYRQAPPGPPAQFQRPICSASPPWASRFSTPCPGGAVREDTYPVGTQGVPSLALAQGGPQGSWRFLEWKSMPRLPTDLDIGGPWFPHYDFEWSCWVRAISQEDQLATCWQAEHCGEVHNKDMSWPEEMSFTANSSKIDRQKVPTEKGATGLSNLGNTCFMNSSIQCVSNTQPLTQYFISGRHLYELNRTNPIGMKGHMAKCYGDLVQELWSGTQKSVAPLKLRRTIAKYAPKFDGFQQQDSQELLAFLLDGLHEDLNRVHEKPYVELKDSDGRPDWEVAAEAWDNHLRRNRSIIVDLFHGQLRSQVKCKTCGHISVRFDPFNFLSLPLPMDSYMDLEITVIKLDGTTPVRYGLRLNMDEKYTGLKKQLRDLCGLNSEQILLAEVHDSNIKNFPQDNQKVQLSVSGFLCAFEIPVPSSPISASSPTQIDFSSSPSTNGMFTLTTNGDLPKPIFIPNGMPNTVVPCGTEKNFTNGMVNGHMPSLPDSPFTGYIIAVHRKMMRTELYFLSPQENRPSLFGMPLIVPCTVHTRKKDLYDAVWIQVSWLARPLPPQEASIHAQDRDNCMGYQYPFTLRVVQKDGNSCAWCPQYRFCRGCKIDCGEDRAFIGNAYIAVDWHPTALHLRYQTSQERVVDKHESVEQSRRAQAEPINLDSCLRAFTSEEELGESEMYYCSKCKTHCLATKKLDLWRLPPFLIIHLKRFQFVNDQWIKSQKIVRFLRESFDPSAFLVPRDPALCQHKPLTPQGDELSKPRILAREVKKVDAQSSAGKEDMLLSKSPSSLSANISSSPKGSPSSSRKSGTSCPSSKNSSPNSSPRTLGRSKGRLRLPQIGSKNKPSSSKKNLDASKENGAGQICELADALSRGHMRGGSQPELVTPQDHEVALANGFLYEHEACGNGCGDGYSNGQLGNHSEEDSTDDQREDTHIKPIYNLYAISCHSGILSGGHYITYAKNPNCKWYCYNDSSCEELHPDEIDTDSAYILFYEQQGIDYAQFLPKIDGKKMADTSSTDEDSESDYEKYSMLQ
Sequence of Josephin-2 (Q8TAC2 whole entry, the tested form may be a part): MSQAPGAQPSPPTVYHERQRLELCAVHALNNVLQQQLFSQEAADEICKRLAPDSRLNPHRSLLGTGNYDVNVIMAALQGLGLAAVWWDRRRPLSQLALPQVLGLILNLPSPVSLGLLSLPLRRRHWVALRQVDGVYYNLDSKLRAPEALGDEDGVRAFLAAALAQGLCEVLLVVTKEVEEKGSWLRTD
Sequence of OTU domain-containing protein 6A (Q7L8S5 whole entry, the tested form may be a part): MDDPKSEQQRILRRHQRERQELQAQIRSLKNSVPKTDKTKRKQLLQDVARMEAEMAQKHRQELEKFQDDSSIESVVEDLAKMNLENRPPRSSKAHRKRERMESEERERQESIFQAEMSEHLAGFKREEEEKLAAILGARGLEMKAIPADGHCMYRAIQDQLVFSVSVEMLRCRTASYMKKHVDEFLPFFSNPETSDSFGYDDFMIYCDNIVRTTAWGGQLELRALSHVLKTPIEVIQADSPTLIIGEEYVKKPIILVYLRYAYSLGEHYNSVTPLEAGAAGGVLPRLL
Sequence of Ubiquitin carboxyl-terminal hydrolase 15 (Q9Y4E8 whole entry, canonical isoform): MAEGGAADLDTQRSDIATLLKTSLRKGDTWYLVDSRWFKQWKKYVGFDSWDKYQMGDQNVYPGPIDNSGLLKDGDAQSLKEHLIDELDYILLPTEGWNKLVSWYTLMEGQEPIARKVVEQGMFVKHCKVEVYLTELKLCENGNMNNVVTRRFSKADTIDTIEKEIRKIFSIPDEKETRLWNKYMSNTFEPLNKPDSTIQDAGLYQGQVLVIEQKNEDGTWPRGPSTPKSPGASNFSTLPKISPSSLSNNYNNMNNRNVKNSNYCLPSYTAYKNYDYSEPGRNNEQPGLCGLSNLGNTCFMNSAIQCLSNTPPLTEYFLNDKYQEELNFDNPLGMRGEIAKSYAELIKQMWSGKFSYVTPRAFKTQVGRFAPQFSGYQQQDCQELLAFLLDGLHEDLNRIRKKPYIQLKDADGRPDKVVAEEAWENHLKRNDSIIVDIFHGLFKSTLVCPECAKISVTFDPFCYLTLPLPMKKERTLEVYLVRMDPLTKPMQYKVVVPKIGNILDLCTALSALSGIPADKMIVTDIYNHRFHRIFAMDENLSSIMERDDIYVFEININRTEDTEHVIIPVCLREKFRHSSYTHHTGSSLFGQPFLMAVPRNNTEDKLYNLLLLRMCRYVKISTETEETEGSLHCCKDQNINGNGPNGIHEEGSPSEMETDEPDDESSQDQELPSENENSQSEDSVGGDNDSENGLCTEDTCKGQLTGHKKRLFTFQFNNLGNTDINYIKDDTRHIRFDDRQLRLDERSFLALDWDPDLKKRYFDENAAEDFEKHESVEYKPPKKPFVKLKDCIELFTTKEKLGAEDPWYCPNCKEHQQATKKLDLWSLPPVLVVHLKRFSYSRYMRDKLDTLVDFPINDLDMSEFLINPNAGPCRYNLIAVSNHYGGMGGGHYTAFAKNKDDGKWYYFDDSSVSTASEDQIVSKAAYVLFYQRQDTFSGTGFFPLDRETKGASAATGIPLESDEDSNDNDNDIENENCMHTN
Sequence of Ubiquitin carboxyl-terminal hydrolase 11 (P51784 whole entry): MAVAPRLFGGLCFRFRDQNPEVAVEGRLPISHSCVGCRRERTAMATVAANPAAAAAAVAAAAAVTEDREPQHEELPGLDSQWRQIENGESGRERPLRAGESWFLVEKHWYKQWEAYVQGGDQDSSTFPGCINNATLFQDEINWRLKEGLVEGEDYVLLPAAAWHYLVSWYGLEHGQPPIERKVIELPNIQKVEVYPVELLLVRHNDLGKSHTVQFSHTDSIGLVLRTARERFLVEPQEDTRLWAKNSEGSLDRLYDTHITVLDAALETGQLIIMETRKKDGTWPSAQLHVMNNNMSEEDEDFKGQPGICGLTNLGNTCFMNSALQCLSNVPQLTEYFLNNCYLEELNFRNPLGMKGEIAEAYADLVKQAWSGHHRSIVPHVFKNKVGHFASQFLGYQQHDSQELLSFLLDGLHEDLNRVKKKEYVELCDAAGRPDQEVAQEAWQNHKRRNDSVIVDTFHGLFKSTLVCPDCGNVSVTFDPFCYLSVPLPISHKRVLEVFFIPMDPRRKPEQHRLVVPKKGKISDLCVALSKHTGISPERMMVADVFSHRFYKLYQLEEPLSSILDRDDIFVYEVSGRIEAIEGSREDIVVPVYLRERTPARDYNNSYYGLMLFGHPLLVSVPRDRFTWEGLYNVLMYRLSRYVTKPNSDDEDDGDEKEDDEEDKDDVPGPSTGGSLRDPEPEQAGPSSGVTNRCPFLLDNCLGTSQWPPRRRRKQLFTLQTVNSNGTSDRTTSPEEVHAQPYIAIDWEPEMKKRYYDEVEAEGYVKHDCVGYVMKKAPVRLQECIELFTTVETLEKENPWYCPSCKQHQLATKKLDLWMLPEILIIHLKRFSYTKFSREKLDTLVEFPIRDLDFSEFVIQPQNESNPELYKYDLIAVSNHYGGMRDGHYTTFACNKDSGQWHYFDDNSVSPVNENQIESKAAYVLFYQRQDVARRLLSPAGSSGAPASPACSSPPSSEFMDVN
Sequence of Ubiquitin carboxyl-terminal hydrolase BAP1 (Q92560 whole entry): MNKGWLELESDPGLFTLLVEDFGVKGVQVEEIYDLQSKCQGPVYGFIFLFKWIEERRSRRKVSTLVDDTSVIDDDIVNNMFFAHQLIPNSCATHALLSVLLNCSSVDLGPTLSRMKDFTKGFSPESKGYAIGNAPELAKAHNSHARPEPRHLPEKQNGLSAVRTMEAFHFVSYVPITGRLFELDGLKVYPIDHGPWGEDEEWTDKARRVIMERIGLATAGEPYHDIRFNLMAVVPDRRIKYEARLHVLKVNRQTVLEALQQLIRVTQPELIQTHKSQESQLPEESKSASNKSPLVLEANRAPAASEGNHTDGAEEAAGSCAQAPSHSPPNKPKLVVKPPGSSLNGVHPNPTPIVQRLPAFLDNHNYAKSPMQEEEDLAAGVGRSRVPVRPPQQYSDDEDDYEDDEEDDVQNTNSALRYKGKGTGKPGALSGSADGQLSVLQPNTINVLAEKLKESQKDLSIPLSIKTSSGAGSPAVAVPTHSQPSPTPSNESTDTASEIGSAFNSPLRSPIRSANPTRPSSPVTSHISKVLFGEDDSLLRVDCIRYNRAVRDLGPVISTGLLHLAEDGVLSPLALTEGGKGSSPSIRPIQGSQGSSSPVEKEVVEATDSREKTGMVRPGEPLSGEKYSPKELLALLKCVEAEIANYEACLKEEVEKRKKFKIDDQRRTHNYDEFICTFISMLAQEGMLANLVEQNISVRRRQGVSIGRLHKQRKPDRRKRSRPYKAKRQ

IC50 [1]: > 10 µM | IC50 [2]: > 10 µM | IC50 [3]: > 10 µM | INH (Cytochrome P450 3A4): 6.2 µM | IC50 [4]: > 10 µM | IC50 [5]: > 10 µM | IC50 [6]: > 10 µM | IC50 [7]: > 10 µM | IC50 [8]: > 10 µM | IC50 [9]: > 10 µM | IC50 [10]: > 10 µM | IC50 [11]: > 10 µM | IC50 [12]: > 10 µM | IC50 (Josephin-2): > 10 µM | IC50 [13]: > 10 µM | IC50 [14]: > 10 µM
SMILES: Cc1cc(Cl)cc(-c2ccnc3cc(CN4C(=O)C5C(C4=O)C5(C)C)sc23)c1O[C@@H]1CCNC[C@@H]1C (some centres not stated)
IC50 (Ataxin-3-like protein): > 10 µM
